Patent US20260194528A1, “PROXIMITY-BASED LABELING OF BIOMOLECULAR CONDENSATE MICROENVIRONMENTS” (THE TRUSTEES OF PRINCETON UNIVERSITY, priority 2022, published 2026)

Legend:
Type in all cases: cell-based
[1] = test system: stress granules; test: stress granule disassembly after NaAsO2 stress; conditions: HEK243T stably expressing HaloTag-G3BP1; 2 μM TAK243; stressed with 500 mM NaAsO2 for 30 minutes; FIG. 6
Protocol: (§1) A protein-transition metal complex composite of FIG. 2 was prepared as follows. Cells (HEK243T stably expressing HaloTag-G3BP1) were seeded and grown to 95% confluency prior to labeling. The cells were incubated in DMEM media containing 5 μM of the with iridium catalyst of FIG. 2 for one hour. During this period, the iridium catalyst passes through the cell membranes and conjugates with the HaloTag-G3BP1 protein. The cells were then incubated in fresh DMEM media for one hour to remove or minimize noise from any unbound iridium catalyst.
(§2) A first portion of the Ir-catalyst loaded cells were subsequently transferred to DMEM media pre-dosed with 2 μM TAK243 and incubated for another hour. The remaining second portion (control) was dosed with the same volume of DMSO. The cells were stressed with […] NaAsO2 in DMEM for 30 minutes. Following stressing, the media was replaced with fresh DMEM for cell recovery at the indicated time. During the stressing period, the cells were dosed with protein labeling agent of 500 μM biotin-diazirine in the media 30 minutes prior to the individual time point of photolabeling. During photolabeling, the cells were subjected to 10 minutes of 450 nm blue light irradiation. FIG. 4 illustrates the foregoing testing protocol.

[2] = test system: stress granule proteins; test: ubiquitination of stress granule proteins during granule formation; conditions: HEK243T stably expressing HaloTag-G3BP1, 2 μM TAK243, FIG. 6
Protocol: as §1, §2
General proteomics preparation protocol was followed. 600 μg of total protein was loaded for streptavidin enrichment. […]

[3] = test system: HECT E3 ligase; test: effect of HECT E3 ligase inhibition or knockdown on stress granule disassembly; conditions: HECT E3 ligase inhibition or siRNA knockdown; FIG. 10, FIG. 11
Source text: With this information provided by the interactome mapping, E3 ligase inhibitor Heclin was employed to determine any effects on HECT E3 ligase function relative to stress granule disassembly, as illustrated in FIG. 9.

stress granule disassembly [3] | Compound | granule disassembly [1] | protein ubiquitination [2]
– | NS(=O)(=O)OC[C@H]1C[C@@H](Nc2ccnc3cc(-c4cccc(SC(F)(F)F)c4)nn23)[C@H](O)[C@@H]1O [TAK243] | delayed | undermined or inhibited
delays stress granule disassembly | CCc1ccc(C=CC(=O)Nc2ccc(C(C)=O)cc2)o1 [Heclin] | – | –
